According to ChEMBL document CHEMBL4411306, “High-throughput screening of novel pyruvate dehydrogenase kinases inhibitors and biological evaluation of their in vitro and in vivo antiproliferative activity” (Eur J Med Chem, 2019):
Values belong to the molecule of their own block, whether it stands above or below them. Activity calls are given as the source filed them. The calls are words filed in the database; no cut-off is given here.

Tests used:
[1] = Permeability across human Caco2 cells by liquid scintillation counting method; type: ADME, cell-based; conditions: caco-2
[2] = molecular target: T1, [Pyruvate dehydrogenase (acetyl-transferring)] kinase isozyme 2, mitochondrial (Homo sapiens, UniProt Q15119); experiment: Inhibition of E2-activated human PDHK2
[3] = Inhibition of porcine PDK assessed as activation of pyruvate dehydrogenase complex measured after 3 mins; design: species or system Sus scrofa
NCI-H1975 [4] = experiment: Inhibition of PDK in human NCI-H1975 cells assessed as reduction in PDH phosphorylation at 10 uM after 12 hrs by Western blot analysis; type: cell-based
[5] = molecular target: T2, [Pyruvate dehydrogenase (acetyl-transferring)] kinase isozyme 1, mitochondrial (Homo sapiens, UniProt Q15118); experiment: Inhibition of recombinant human His-tagged PDK1 expressed in Escherichia coli using PDH E1 as substrate measured after 30 mins by Kinase-Glo luminescence assay
T2 sequence (Q15118 whole entry): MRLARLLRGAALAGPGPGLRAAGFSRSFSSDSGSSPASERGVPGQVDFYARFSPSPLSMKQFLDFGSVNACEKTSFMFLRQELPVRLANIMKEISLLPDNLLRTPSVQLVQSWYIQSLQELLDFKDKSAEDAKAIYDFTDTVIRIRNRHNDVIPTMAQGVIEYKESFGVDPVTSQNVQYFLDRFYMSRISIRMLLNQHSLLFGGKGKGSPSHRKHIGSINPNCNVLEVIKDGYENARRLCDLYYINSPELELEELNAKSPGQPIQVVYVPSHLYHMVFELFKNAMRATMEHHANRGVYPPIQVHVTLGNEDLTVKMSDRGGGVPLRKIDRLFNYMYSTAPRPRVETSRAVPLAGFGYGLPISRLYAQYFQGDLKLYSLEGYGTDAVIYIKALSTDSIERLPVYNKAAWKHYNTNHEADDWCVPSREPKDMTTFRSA

[6] = molecular target: T1, [Pyruvate dehydrogenase (acetyl-transferring)] kinase isozyme 2, mitochondrial; experiment: Inhibition of recombinant human His-tagged PDK2 expressed in Escherichia coli using PDH E1 as substrate measured after 30 mins by Kinase-Glo luminescence assay
[7] = molecular target: [Pyruvate dehydrogenase (acetyl-transferring)] kinase isozyme 3, mitochondrial (Homo sapiens, UniProt Q15120); experiment: Inhibition of recombinant human His-tagged PDK3 expressed in Escherichia coli using PDH E1 as substrate measured after 30 mins by Kinase-Glo luminescence assay
[Pyruvate dehydrogenase (acetyl-transferring)] kinase isozyme 3, mitochondrial, sequence (Q15120 whole entry): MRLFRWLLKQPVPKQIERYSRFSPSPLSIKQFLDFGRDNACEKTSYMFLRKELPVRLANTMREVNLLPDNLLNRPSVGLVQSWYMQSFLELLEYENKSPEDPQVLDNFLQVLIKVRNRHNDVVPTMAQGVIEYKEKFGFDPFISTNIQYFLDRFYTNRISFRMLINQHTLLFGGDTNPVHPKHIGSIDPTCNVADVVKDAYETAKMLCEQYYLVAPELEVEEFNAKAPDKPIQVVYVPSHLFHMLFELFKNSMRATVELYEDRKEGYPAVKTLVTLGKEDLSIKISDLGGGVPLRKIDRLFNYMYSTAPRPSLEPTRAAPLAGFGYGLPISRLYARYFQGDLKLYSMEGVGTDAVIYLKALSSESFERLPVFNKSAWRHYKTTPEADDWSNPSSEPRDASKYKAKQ

[8] = molecular target: [Pyruvate dehydrogenase (acetyl-transferring)] kinase isozyme 4, mitochondrial (Homo sapiens, UniProt Q16654); experiment: Inhibition of recombinant human His-tagged PDK4 expressed in Escherichia coli using PDH E1 as substrate measured after 30 mins by Kinase-Glo luminescence assay
[Pyruvate dehydrogenase (acetyl-transferring)] kinase isozyme 4, mitochondrial, sequence (Q16654 whole entry): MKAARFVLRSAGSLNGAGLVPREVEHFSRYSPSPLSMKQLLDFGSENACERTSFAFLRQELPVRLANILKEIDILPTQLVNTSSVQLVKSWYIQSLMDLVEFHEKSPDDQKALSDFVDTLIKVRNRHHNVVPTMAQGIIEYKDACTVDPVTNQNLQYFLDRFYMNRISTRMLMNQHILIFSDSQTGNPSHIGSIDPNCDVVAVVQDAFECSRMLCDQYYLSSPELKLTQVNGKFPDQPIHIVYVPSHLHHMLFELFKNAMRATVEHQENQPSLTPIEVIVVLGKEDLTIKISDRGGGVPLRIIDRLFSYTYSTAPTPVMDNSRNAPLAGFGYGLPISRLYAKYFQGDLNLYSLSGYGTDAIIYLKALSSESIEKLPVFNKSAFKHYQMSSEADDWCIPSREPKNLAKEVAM

Heat shock protein HSP90 = Heat shock protein HSP90 (Homo sapiens, UniProt P07900+P08238); experiment: Inhibition of human HSP90 measured after 30 mins by fluorescence polarization assay; type: protein assay
[9] = molecular target: T2, [Pyruvate dehydrogenase (acetyl-transferring)] kinase isozyme 1, mitochondrial; experiment: Binding affinity to recombinant human His-tagged PDK1 expressed in Escherichia coli by isothermal calorimetry
A549 = experiment: Antiproliferative activity against human A549 cells assessed as reduction in cell viability after 72 hrs by MTT assay; type: functional
NCI-H1650 = experiment: Antiproliferative activity against human NCI-H1650 cells assessed as reduction in cell viability after 72 hrs by MTT assay; type: functional
NCI-H1975 [10] = experiment: Antiproliferative activity against human NCI-H1975 cells assessed as reduction in cell viability after 72 hrs by MTT assay; type: functional
MCF7 = experiment: Antiproliferative activity against human MCF7 cells assessed as reduction in cell viability after 72 hrs by MTT assay; type: functional
A-375 = experiment: Antiproliferative activity against human A375 cells assessed as reduction in cell viability after 72 hrs by MTT assay; type: functional
HepG2 = experiment: Antiproliferative activity against human HepG2 cells assessed as reduction in cell viability after 72 hrs by MTT assay; type: functional
HCT-116 = experiment: Antiproliferative activity against human HCT116 cells assessed as reduction in cell viability after 72 hrs by MTT assay; type: functional
[11] = Antiproliferative activity against human BEAS2B cells assessed as reduction in cell viability after 72 hrs by MTT assay; type: cell-based; conditions: BEAS-2B cells, read-out: GC50

Structure (SMILES): CC(C)Cc1ccc(C(C)C(=O)O)cc1 (configuration not stated) [IBUPROFEN]
- Papp [1]: 47.2 ×10⁻⁶ cm/s

Structure (SMILES): C[C@@H]1CN(C(=O)[C@](C)(O)C(F)(F)F)[C@@H](C)CN1C(=O)c1ccc(C#N)cc1
- IC50 [2]: 0.0078 µM

Structure (SMILES): CN(C)C(=O)c1ccc(S(=O)(=O)c2ccc(NC(=O)[C@@](C)(O)C(F)(F)F)c(Cl)c2)cc1
- IC50 [2]: 0.08 µM

Structure (SMILES): O=C(c1ccccc1)C(Cl)Cl
- EC50 [3]: > 1000 µM
- reduction in PDH phosphorylation (qualitative) (NCI-H1975 [4]): Active

Structure (SMILES): Cc1cnc(Cl)nc1-c1ccc(N(Cc2ccc(CNC(=O)C(F)F)cc2)C(=O)c2ccc(O)cc2O)cc1
- EC50 [3]: 0.12 µM

Structure (SMILES): CCOc1ccc([C@@H]2C(C(=O)Nc3cccnc3)=C(C)Nc3nc(CCCO)nn32)cc1
- EC50 [3]: 5.9 µM
- reduction in PDH phosphorylation (qualitative) (NCI-H1975 [4]): Active

Structure (SMILES): CC(C)CNS(=O)(=O)c1ccc(OCC(=O)N(Cc2ccccc2)Cc2ccccc2)cc1
- EC50 [3]: 1.4 µM
- reduction in PDH phosphorylation (qualitative) (NCI-H1975 [4]): Active
- IC50 [5]: 0.89 µM
- IC50 [6]: 5.9 µM
- IC50 [7]: 4.9 µM
- IC50 [8]: 6.9 µM
- IC50 (Heat shock protein HSP90): 3.58 µM
- Kd [9]: 1.49 µM
- Activity (A549): Dose-dependent effect
- GC50 (A549): 17.5 µM
- Activity (NCI-H1650): Dose-dependent effect
- GC50 (NCI-H1650): >20 µM
- Activity (NCI-H1975 [10]): Dose-dependent effect
- GC50 (NCI-H1975 [10]): >20 µM
- Activity (MCF7): Dose-dependent effect
- GC50 (MCF7): >20 µM
- Activity (A-375): Dose-dependent effect
- GC50 (A-375): 12.3 µM
- Activity (HepG2): Dose-dependent effect
- GC50 (HepG2): 18.2 µM
- Activity (HCT-116): Dose-dependent effect
- GC50 (HCT-116): >20 µM
- GI50 at 72 h [11]: > 20 µM
- Papp [1]: 1.14 ×10⁻⁶ cm/s

Structure (SMILES): Cc1ccc(NC(=O)CSc2c[nH]c(-c3ccccc3O)n2)cc1
- EC50 [3]: 4.6 µM
- reduction in PDH phosphorylation (qualitative) (NCI-H1975 [4]): Active

Continued, in another order:

- EC50 [3]: 6.9 µM
Structure (SMILES): COc1ccc(-c2nnn(CC(=O)Nc3cccc(F)c3)n2)cc1
- reduction in PDH phosphorylation (qualitative) (NCI-H1975 [4]): Active

- EC50 [3]: 3.5 µM
Structure (SMILES): CC(=O)N[C@@H](Cc1c[nH]c2ccccc12)C(=O)NCCOc1ccc(C2CCCCC2)cc1
- reduction in PDH phosphorylation (qualitative) (NCI-H1975 [4]): Active

- EC50 [3]: 5.2 µM
Structure (SMILES): COc1ccc(C(=O)CSc2nnc(CNc3ccccc3OC)n2-c2ccccc2)cc1
- reduction in PDH phosphorylation (qualitative) (NCI-H1975 [4]): Active

- EC50 [3]: 8.4 µM
Structure (SMILES): O=C(Nc1ccc(Cl)cc1C(=O)N1CCCC[C@@H]1CCO)c1ccc(Cl)cc1Cl
- reduction in PDH phosphorylation (qualitative) (NCI-H1975 [4]): Active

- Papp [1]: 0.21 ×10⁻⁶ cm/s
Structure (SMILES): COc1cccc2c1C(=O)c1c(O)c3c(c(O)c1C2=O)C[C@@](O)(C(=O)CO)C[C@@H]3O[C@H]1C[C@H](N)[C@H](O)[C@H](C)O1 [DOXORUBICIN]

- EC50 [3]: 1.6 µM
- IC50 [5]: 5.9 µM
- IC50 [6]: 10.5 µM
- IC50 [7]: 8.3 µM
- IC50 [8]: 14.7 µM
- IC50 (Heat shock protein HSP90): 2.7 µM
- Kd [9]: 3.5 µM
- Papp [1]: 0.96 ×10⁻⁶ cm/s
Structure (SMILES): C[C@H]1CCc2c(sc3nc(SCCN4CCCC4)n(N)c(=O)c23)C1
- reduction in PDH phosphorylation (qualitative) (NCI-H1975 [4]): Active
- Activity (A549): Dose-dependent effect
- GC50 (A549): >20 µM
- Activity (NCI-H1650): Dose-dependent effect
- GC50 (NCI-H1650): 16.3 µM
- Activity (NCI-H1975 [10]): Dose-dependent effect
- GC50 (NCI-H1975 [10]): 15.6 µM
- Activity (MCF7): Dose-dependent effect
- GC50 (MCF7): >20 µM
- Activity (A-375): Dose-dependent effect
- GC50 (A-375): >20 µM
- Activity (HepG2): Dose-dependent effect
- GC50 (HepG2): >20 µM
- Activity (HCT-116): Dose-dependent effect
- GC50 (HCT-116): >20 µM
- GI50 at 72 h [11]: > 20 µM
